{"source": "patent US20080311158A1", "about": "“Hepatitis C Virus Replication System” (priority 2004, published 2008)", "key": {"[1]": {"test_system": "HCV RNA in 21-5/R809 cells", "experiment": "HCV RNA levels after IFN-α treatment of 21-5/R809 cell culture", "assay_type": "cell-based, hepatitis C virus", "conditions": "21-5/R809 cells incubated with IFN-α", "from_the_text": "FIGS. 17 and 18 show levels of HCV RNA or ribosomal RNA after IFN-α treatment of cell culture."}, "HCV replication": {"test_system": "HCV replication", "conditions": "reference 101; cited from earlier work"}, "[2]": {"test_system": "E1 and E2 distribution in 21-5/R809 cells", "experiment": "Intracellular immunofluorescence of E1/E2 in 21-5/R809 cells before and after IFN-α treatment", "assay_type": "cell-based, human", "conditions": "anti E1/E2 staining, FIG. 16", "procedure": "Cells were stained with anti E1/E2.\nCells were plated on […] coverslips in 24-well plates at a density of 5×10^4 cells per well. One day after seeding, cells were washed in PBS, fixed in 4% formaldehyde for 30 min and then permeabilized with 0.1% Triton X-100 in PBS for 15 min. Cells were then pretreated with blocking solution (0.5% bovin serum albumin in PBS) for 30 min and incubated for 1 h at room temperature with the primary antibodies diluted in blocking solution according to the manufacturer's instructions. After three washes in PBS, AlexaFluor-conjugated secondary antibodies were added to the cells at a 1:200 dilution for 1 h at room temperature. After washings with PBS, coverslips were washed in distilled water, and mounted in aqueous mounting medium Vectashield with DAPI (4′,6′-diamidino-2-phenylindole)."}}, "note": "“Also recorded” adds a separate entry of the source.", "data": [{"substance": "Interferon alpha [IFN-α]", "values": [{"measurement": "HCV RNA levels, absolute", "setting": "[1]; FIG. 17", "result": "decrease"}, {"measurement": "HCV RNA levels relative to ribosomal RNA", "setting": "[1]; FIG. 18", "result": "decrease"}, {"measurement": "HCV replication in cell culture", "setting": "HCV replication", "result": "inhibit HCV replication"}, {"measurement": "ER-pattern distribution of E1 and E2", "setting": "[2]", "result": "lose the typical ER-pattern distribution of E1 and E2; also recorded: changed the ER-pattern distribution of E1 and E2"}]}]}
